Values of other authors, collected in PMC4405790 (Pharmaceutical research, 2012).
Entries after “also recorded” stand apart in the source; their conditions may differ.

Tests used:
[1] = aqueous

SMILES: Cc1cc(C)cc(C(=O)c2c(C(C)C)c(=O)[nH]c(=O)n2CC2CC2)c1 [IQP-0528, 1-(3-Cyclopropyl)methyl-6-(3,5-dimethylbenzoyl)-5-isopropyl-2,4(1H,3H)-pyrimidinedione]
- solubility [1]: low solubility; also recorded: very low solubility
- activity against laboratory strains of virus (HIV): nanomolar
- activity against representative clinical strains of HIV (HIV): nanomolar to subnanomolar
- level of activity as a NNRTI (HIV; cell-based in vitro assays): subnanomolar
- level of activity as inhibitor of a step in virus entry (HIV; cell-based in vitro assays): nanomolar
